Assay results taken from patent publication US11066447B2, “Aureobasidium derivatives and methods of synthesis” (AureoGen Biosciences, Inc., priority 2016, dated 2021).
≈ marks a conversion by molar mass, not a printed value. Read-outs that look alike come from different tables or passages of the source. Numbered stars: 1 amine (or outer) side, 2 acyl side, 3 side chain; on linkers, the order of the positions; unused ones are H or OH. Square brackets hold non-standard residues; d marks the D form. Peptide text beside a SMILES is read from it. X1 = CC(C)N1CCN(c2ccc(-c3cccc(C[C@@H](C(=O)[*:2])N(C)[*:1])c3)cc2)CC1; Hmp(2R,3S) = CC[C@H](C)[C@@H](O)C(=O)O; NMeVal(β-OH) = CN[C@H](C(=O)O)C(C)(C)O; NMeV = CN[C@H](C(=O)O)C(C)C

Tests used:
[1] = tested on: C. albicans MMX 2000 ATCC 10231; assay: MIC assay (CLSI microdilution); assay type: cell-based; settings: Candida albicans, ATCC10231, RPMI plus 0.002% Tween-80; read-out: MIC
[2] = tested on: C. neoformans MMX 0634 ATCC 90112; assay: MIC assay (CLSI microdilution); assay type: cell-based
[3] = tested on: C. parapsilosis MMX 2323 ATCC 22019; settings: Without Tween-80; quality control range; cited from earlier work
[4] = tested on: A. fumigatus MMX 5280 ATCC MYA-3626; settings: Without Tween-80, quality control range, cited from earlier work
[5] = tested on: A. fumigatus MMX 5280 ATCC MYA-3626; assay: MIC/MEC assay (CLSI microdilution); assay type: cell-based, Aspergillus fumigatus
Outline: (§1)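 Aspergillus spore suspensions, diluted from counted stocks to a final approximately 0.2-2.5×10^4 CFU/mL, were inoculated into RPMI-1640 containing 0.002% Tween-80 holding two-fold drug dilutions. Compounds came from 95% ethanol, amphotericin B (0.06-64 μg/mL) from DMSO. MMX 5280 was also tested without Tween-80.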

[6] = tested on: C. albicans MMX 2000 ATCC 10231; assay: MIC assay (CLSI microdilution); assay type: cell-based; settings: Candida albicans, ATCC10231, Without Tween-80; read-out: MIC
[7] = tested on: C. parapsilosis MMX 2323 ATCC 22019; assay: MIC assay (CLSI microdilution); assay type: cell-based, Candida parapsilosis; settings: read-out: MIC
Outline: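 Broth microdilution MIC testing of Candida parapsilosis ATCC 22019 followed CLSI methods in RPMI-1640, with or without 0.002% Tween-80. Yeast grown 48 hours at 35° C on Sabouraud dextrose agar was suspended to a 0.5 McFarland standard and diluted 1:100 to roughly 0.5-2.5×10^3 CFU/mL. The MIC was the lowest concentration preventing visible growth.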

[8] = tested on: A. fumigatus MMX 6781 ATCC MYA-4609; assay: MIC/MEC assay (CLSI microdilution); assay type: cell-based; settings: Aspergillus fumigatus
Outline: as §1

[9] = tested on: A. fumigatus from Aureogen; assay: MIC/MEC assay (CLSI microdilution); assay type: cell-based
Outline: as §1

[10] = tested on: A. flavus MMX 5948; assay: MIC/MEC assay (CLSI microdilution); assay type: cell-based; settings: Aspergillus flavus, MMX5948, 48 h, RPMI plus 0.002% Tween-80
Outline: as §1

[11] = tested on: A. fumigatus MMX 6782 ATCC 13073; assay: MIC/MEC assay (CLSI microdilution); assay type: cell-based
Outline: as §1

[12] = tested on: A. niger MMX 0624 ATCC 16888; assay: MIC/MEC assay (CLSI microdilution); assay type: cell-based
Outline: as §1

[13] = tested on: A. fumigatus MMX 5944; assay: MIC/MEC assay (CLSI microdilution); assay type: cell-based
Outline: as §1

[14] = tested on: Coccidiodes immitus; assay: organism not typed; assay type: cell-based
[15] = Cryptococcus neoformans, ATCC90112, 72 h, 72 hour, RPMI plus 0.002% Tween-80, read-out: MIC
[16] = Cryptococcus neoformans, ATCC90112, RPMI plus 0.002% Tween-80, read-out: MIC
[17] = Aspergillus fumigatus, 48 h, RPMI plus 0.002% Tween-80, read-out: MIC
[18] = RPMI plus 0.002% Tween-80, 48 hr

C[C@@H]1[C@H](O)[C@@H](C)/C=C/C=C/C=C/C=C/C=C/C=C/C=C/[C@H](O[C@@H]2O[C@H](C)[C@@H](O)[C@H](N)[C@@H]2O)C[C@@H]2O[C@](O)(C[C@@H](O)C[C@@H](O)[C@H](O)CC[C@@H](O)C[C@@H](O)CC(=O)O[C@H]1C)C[C@H](O)[C@H]2C(=O)O [Amphotericin B, reference compound]
MIC [1]: ≤ 0.06 µg/mL | MIC [2, 15]: ≤ 0.06 µg/mL | MIC [2, 16]: ≤ 0.06 µg/mL | CLSI QC Range (MIC) [3]: (0.25-1)^1 μg/mL | CLSI QC Range (MIC) [4]: 0.5 to 4 µg/mL | CLSI QC Range (MIC) ([4]; listed as Amph. B): (0.5-4)^1 μg/mL | MIC ([5]; Without Tween-80, 48 hr): 0.5 µg/mL (≈ 0.541 µM) | MIC [6]: ≤ 0.06 µg/mL

CC[C@H](C)[C@@H]1NC(=O)[C@@H]2CCCN2C(=O)[C@H](Cc2cccc(-c3ccc(N4CCN(C(C)C)CC4)cc3)c2)N(C)C(=O)[C@H](Cc2ccccc2)NC(=O)[C@H](C(C)C)N(C)C(=O)[C@@H]([C@@H](C)CC)OC(=O)[C@H](C(C)(C)O)N(C)C(=O)[C@H](CC(C)C)NC(=O)[C@H](C(C)C)N(C)C1=O [Compound 25] (cyclo(F[X1]PI[NMeV]L[NMeVal(β-OH)][Hmp(2R,3S)][NMeV]))
MIC [1]: 0.015 µg/mL | MIC ([2]; 72 hour, RPMI plus 0.002% Tween-80): 0.06 µg/mL | MIC [2, 15]: 0.06 µg/mL | MIC [2, 16]: 0.015 µg/mL | minimal effective concentration ([5]; Aspergillus fumigatus, 48 h, RPMI plus 0.002% Tween-80, read-out: MEC): 0.03 µg/mL | MIC [5, 17]: 0.12 µg/mL | minimal effective concentration ([5]; Aspergillus fumigatus, 48 h, Without Tween-80, read-out: MEC): 0.5 µg/mL | MIC ([5]; Aspergillus fumigatus, 48 h, Without Tween-80, read-out: MIC): 1 µg/mL (≈ 0.767 µM) | MEC ([5]; Without Tween-80, 48 hr): 1/1 μg/mL | MIC ([5]; Without Tween-80, 48 hr): 1 µg/mL (≈ 0.767 µM) | MIC ([7]; ATCC22019, RPMI plus 0.002% Tween-80): 0.03 µg/mL | MIC ([7]; ATCC22019, Without Tween-80): 1 µg/mL (≈ 0.767 µM) | MIC ([8]; 48 h, RPMI plus 0.002% Tween-80, read-out: MIC): 0.12 µg/mL | minimal effective concentration [8, 18]: 0.03 µg/mL | minimal effective concentration ([9]; Aspergillus fumigatus, 48 h, RPMI plus 0.002% Tween-80): 0.06 µg/mL | MIC [9, 17]: 0.12 µg/mL | MEC [9, 18]: 0.06 µg/mL | minimal effective concentration [10]: 0.008 µg/mL | minimal effective concentration ([11]; Aspergillus fumigatus, ATCC13073, 48 h, RPMI plus 0.002% Tween-80, read-out: MEC): 0.015 µg/mL | MIC ([11]; Aspergillus fumigatus, ATCC13073, 48 h, RPMI plus 0.002% Tween-80, read-out: MIC): 0.06 µg/mL | MIC [11, 18]: 0.06 µg/mL | minimal effective concentration ([12]; Aspergillus niger, ATCC16888, 48 h, RPMI plus 0.002% Tween-80, read-out: MEC): 0.015 µg/mL | MIC ([12]; Aspergillus niger, ATCC16888, 48 h, RPMI plus 0.002% Tween-80, read-out: MIC): 0.015 µg/mL | MIC [12, 18]: 0.015 µg/mL | minimal effective concentration ([13]; Aspergillus fumigatus, MMX5944, 48 h, RPMI plus 0.002% Tween-80): 0.015 µg/mL | MIC ([13]; Aspergillus fumigatus, MMX5944, 48 h, RPMI plus 0.002% Tween-80, read-out: MIC): 0.06 µg/mL | MIC [13, 18]: 0.06 µg/mL | MIC [6]: 1 µg/mL (≈ 0.767 µM) | MIC [14]: 0.15 µg/mL (≈ 0.115 µM)
